This experiment has as its system porcine coronary smooth muscles. The experiment is described as follows: Assay of constrictor suppressing activity on porcine coronary smooth muscles (antagonism of endothelin-1 constriction). In kind it is cell-based. Conditions: for pA₂: antagonistic activity on constriction by endothelin-1 given cumulatively about 15 minutes after the compound, negative logarithm of molar concentration of antagonist shifting the dose response curve by a factor of 2; for Relative potency: antagonistic activity on the constriction of porcine coronary smooth muscles, Example 1 = 100. As for the experimental part:
• (1) Assay of Constrictor Suppressing Activity on Porcine Coronary Smooth Muscles Spiral strips 2 mm x 15 mm prepared from the coronary right ramus circumflexus from which the adventitial connective tissues and the endothelial cells were removed were set to 4 ml organ baths. The tension of each strip was detected by a force displacement transducer UL-10GR (Minebea), and recorded by a polygraph (NEC Sanei). The organ baths were maintained at 37°C, and filled with a Krebs-Henseleit solution (composition: 118 mM NaCl, 4.7 mM KCl, 2.5 mM CaCl₂, 1.2 mM KH₂PO₄, 25.0 mM NaHCO₃, 1.2 mM MgSO₄, 10.0 mM glucose) gassed with 95% O₂ and 5% CO₂. A tension of 1.25 to 1.5 g was applied to each of the strips, followed by equilibration for 1.5 hours. 60 mM KCl was repeatedly applied thereto at intervals of 30 minutes until the constriction response became constant. After additional equilibration for 1.5 hours, a sample for assay was given thereto. The constriction of the strips was normalized by the constriction response of the individual strips to 60 mM KCl and statistically processed. The suppressing activity was determined as a pA₂ value by giving endothelin-1 cumulatively about 15 minutes after the compound having a predetermined concentration was given, and comparing the constriction thereof with that of a control sample in which only endothelin-1 was given. […] Such a case has not been reported yet. […] The affinity for the receptor was assayed by the following method.

Structures are written as SMILES. Bridge positions count the residues as written; N and C are the ends. Square brackets hold non-standard residues; d marks the D form. Peptide text beside a SMILES is read from it. tBuAla = CC(C)(C)C[C@H](N)C(=O)O; Cha = N[C@@H](CC1CCCCC1)C(=O)O; Mpa = O=C(O)CCS

Regarding `CC[C@H](C)[C@H](NC(=O)[C@H](CC(C)C)NC(=O)[C@@H](NC(=O)[C@H](CC(C)C)NC(=O)[C@H](Cc1c[nH]cn1)NC(=O)[C@@H]1CSSC[C@H](N)C(=O)N[C@@H](CO)C(=O)N[C@H]2CSSC[C@H](NC(=O)[C@H](CCC(=O)O)NC(=O)[C@H](CCCCN)NC(=O)[C@H](CC(=O)O)NC(=O)[C@H](CCSC)NC(=O)[C@H](CC(C)C)NC(=O)[C@H](CO)NC(=O)[C@H](CO)NC2=O)C(=O)N[C@@H](C(C)C)C(=O)N[C@@H](Cc2ccc(O)cc2)C(=O)N[C@@H](Cc2ccccc2)C(=O)N1)[C@@H](C)O)C(=O)N[C@@H](Cc1c[nH]c2ccccc12)C(=O)O` [Example 1, [Thr¹⁸, Leu¹⁹]-ET-1] (H-CSCSSLMDKECVYFCHLTLIW-OH; disulfide 1-15, 3-11), the pA₂ stood at 7.7 and the Relative potency is 100.

Take `CC[C@H](C)[C@H](NC(=O)[C@H](CC1CCCCC1)NC(=O)[C@@H](NC(=O)[C@H](CC(C)C)NC(=O)[C@H](Cc1c[nH]cn1)NC(=O)[C@@H]1CSSC[C@H](N)C(=O)N[C@@H](CO)C(=O)N[C@H]2CSSC[C@H](NC(=O)[C@H](CCC(=O)O)NC(=O)[C@H](CCCCN)NC(=O)[C@H](CC(=O)O)NC(=O)[C@H](CCSC)NC(=O)[C@H](CC(C)C)NC(=O)[C@H](CO)NC(=O)[C@H](CO)NC2=O)C(=O)N[C@@H](C(C)C)C(=O)N[C@@H](Cc2ccc(O)cc2)C(=O)N[C@@H](Cc2ccccc2)C(=O)N1)[C@@H](C)O)C(=O)N[C@@H](Cc1c[nH]c2ccccc12)C(=O)O` [Example 2, [Thr¹⁸, Cha¹⁹]-ET-1] (H-CSCSSLMDKECVYFCHLT[Cha]IW-OH; disulfide 1-15, 3-11): the pA₂ was 7.7 and the Relative potency was 100.

As for `CC[C@H](C)[C@H](NC(=O)[C@H](Cc1ccccc1)NC(=O)[C@@H](NC(=O)[C@H](CC(C)C)NC(=O)[C@H](Cc1c[nH]cn1)NC(=O)[C@@H]1CSSC[C@H](N)C(=O)N[C@@H](CO)C(=O)N[C@H]2CSSC[C@H](NC(=O)[C@H](CCC(=O)O)NC(=O)[C@H](CCCCN)NC(=O)[C@H](CC(=O)O)NC(=O)[C@H](CCSC)NC(=O)[C@H](CC(C)C)NC(=O)[C@H](CO)NC(=O)[C@H](CO)NC2=O)C(=O)N[C@@H](C(C)C)C(=O)N[C@@H](Cc2ccc(O)cc2)C(=O)N[C@@H](Cc2ccccc2)C(=O)N1)[C@@H](C)O)C(=O)N[C@@H](Cc1c[nH]c2ccccc12)C(=O)O` [Example 3, [Thr¹⁸, Phe¹⁹]-ET-1] (H-CSCSSLMDKECVYFCHLTFIW-OH; disulfide 1-15, 3-11), the pA₂ came out at 7.2 and the Relative potency is given as 32.

For `CC[C@H](C)[C@H](NC(=O)[C@H](CC(C)(C)C)NC(=O)[C@@H](NC(=O)[C@H](CC(C)C)NC(=O)[C@H](Cc1c[nH]cn1)NC(=O)[C@@H]1CSSC[C@H](N)C(=O)N[C@@H](CO)C(=O)N[C@H]2CSSC[C@H](NC(=O)[C@H](CCC(=O)O)NC(=O)[C@H](CCCCN)NC(=O)[C@H](CC(=O)O)NC(=O)[C@H](CCSC)NC(=O)[C@H](CC(C)C)NC(=O)[C@H](CO)NC(=O)[C@H](CO)NC2=O)C(=O)N[C@@H](C(C)C)C(=O)N[C@@H](Cc2ccc(O)cc2)C(=O)N[C@@H](Cc2ccccc2)C(=O)N1)[C@@H](C)O)C(=O)N[C@@H](Cc1c[nH]c2ccccc12)C(=O)O` [Example 4, [Thr¹⁸, γLeu¹⁹]-ET-1] (H-CSCSSLMDKECVYFCHLT[tBuAla]IW-OH; disulfide 1-15, 3-11), the pA₂ came to 7.4 and the Relative potency is reported as 50.

With `CC[C@H](C)[C@H](NC(=O)[C@H](CC(C)C)NC(=O)[C@H](CO)NC(=O)[C@H](CC(C)C)NC(=O)[C@H](Cc1c[nH]cn1)NC(=O)[C@@H]1CSSC[C@H](N)C(=O)N[C@@H](CO)C(=O)N[C@H]2CSSC[C@H](NC(=O)[C@H](CCC(=O)O)NC(=O)[C@H](CCCCN)NC(=O)[C@H](CC(=O)O)NC(=O)[C@H](CCSC)NC(=O)[C@H](CC(C)C)NC(=O)[C@H](CO)NC(=O)[C@H](CO)NC2=O)C(=O)N[C@@H](C(C)C)C(=O)N[C@@H](Cc2ccc(O)cc2)C(=O)N[C@@H](Cc2ccccc2)C(=O)N1)C(=O)N[C@@H](Cc1c[nH]c2ccccc12)C(=O)O` [Example 6, [Ser¹⁸, Leu¹⁹]-ET-1] (H-CSCSSLMDKECVYFCHLSLIW-OH; disulfide 1-15, 3-11), the pA₂ came out at 7.5 and the Relative potency is given as 63.

Take `CC[C@H](C)[C@H](NC(=O)[C@H](CC(C)C)NC(=O)CNC(=O)[C@H](CC(C)C)NC(=O)[C@H](Cc1c[nH]cn1)NC(=O)[C@@H]1CSSC[C@H](N)C(=O)N[C@@H](CO)C(=O)N[C@H]2CSSC[C@H](NC(=O)[C@H](CCC(=O)O)NC(=O)[C@H](CCCCN)NC(=O)[C@H](CC(=O)O)NC(=O)[C@H](CCSC)NC(=O)[C@H](CC(C)C)NC(=O)[C@H](CO)NC(=O)[C@H](CO)NC2=O)C(=O)N[C@@H](C(C)C)C(=O)N[C@@H](Cc2ccc(O)cc2)C(=O)N[C@@H](Cc2ccccc2)C(=O)N1)C(=O)N[C@@H](Cc1c[nH]c2ccccc12)C(=O)O` [Example 8, [Gly¹⁸, Leu¹⁹]-ET-1] (H-CSCSSLMDKECVYFCHLGLIW-OH; disulfide 1-15, 3-11): the pA₂ is 6.7 and the Relative potency came to 10.

Regarding `CC[C@H](C)[C@H](NC(=O)[C@H](CC(C)C)NC(=O)[C@@H](NC(=O)[C@H](CC(C)C)NC(=O)[C@H](Cc1c[nH]cn1)NC(=O)[C@@H]1CSSC[C@H](N)C(=O)N[C@@H](CO)C(=O)N[C@H]2CSSC[C@H](NC(=O)[C@H](CCC(=O)O)NC(=O)[C@H](C)NC(=O)[C@H](CC(=O)O)NC(=O)[C@H](CCSC)NC(=O)[C@H](CC(C)C)NC(=O)[C@H](CO)NC(=O)[C@H](CO)NC2=O)C(=O)N[C@@H](C(C)C)C(=O)N[C@@H](Cc2ccc(O)cc2)C(=O)N[C@@H](Cc2ccccc2)C(=O)N1)[C@@H](C)O)C(=O)N[C@@H](Cc1c[nH]c2ccccc12)C(=O)O` [Example 10, [Ala⁹, Thr¹⁸, Leu¹⁹]-ET-1] (H-CSCSSLMDAECVYFCHLTLIW-OH; disulfide 1-15, 3-11), the pA₂ is recorded as 5.9 and the Relative potency turned out to be 1.6.

Regarding `CC[C@H](C)[C@H](NC(=O)[C@H](CC(C)C)NC(=O)[C@@H](NC(=O)[C@H](CC(C)C)NC(=O)[C@H](Cc1c[nH]cn1)NC(=O)[C@@H]1CSSCCC(=O)N[C@@H](CO)C(=O)N[C@H]2CSSC[C@H](NC(=O)[C@H](CCC(=O)O)NC(=O)[C@H](CCCCN)NC(=O)[C@H](CC(=O)O)NC(=O)[C@H](CCSC)NC(=O)[C@H](CC(C)C)NC(=O)[C@H](CO)NC(=O)[C@H](CO)NC2=O)C(=O)N[C@@H](C(C)C)C(=O)N[C@@H](Cc2ccc(O)cc2)C(=O)N[C@@H](Cc2ccccc2)C(=O)N1)[C@@H](C)O)C(=O)N[C@@H](Cc1c[nH]c2ccccc12)C(=O)O` [Example 11, [Mpr¹, Thr¹⁸, Leu¹⁹]-ET-1] ([Mpa]SCSSLMDKECVYFCHLTLIW-OH; disulfide 1-15, 3-11), the pA₂ turned out to be 6.5 and the Relative potency is reported as 6.

(Values after patent publication EP0547317A1, “Endothelin antagonists” (TAKEDA CHEMICAL INDUSTRIES, LTD., priority 1991, dated 1993).)
